Laboratory results as given in patent US6100247A, “Method of treating diabetic neuropathy” (BioNumerik Pharmaceuticals, Inc., priority 1999, dated 2000).

Columns and labels:
[1] = biological target: T1, aldose reductase (human recombinant, expressed in SF 9 cells) (Homo sapiens, UniProt P15121); test: Aldose reductase assay, reduction of glucose to sorbitol (NADPH oxidation, absorbance at 340 nm); assay type: biochemical; conditions: Lineweaver Burk plots nearly parallel; glucose and glyceraldehyde substrates
T1 construct: host or cells: SF 9 cells
Protocol: Aldose reductase assays were as described in Nishimura C., Yamaoka T., Mizutani M., Yamashita K., Akera T., Tanimoto T., Purification And Characterization Of The Recombinant Human Aldose Reductase Expressed In Baculovirus System, Biochem. Biophys. Acta, Jun. 24, 1991; 1078(2):171-8.
Briefly, Dimesna (0-20 μM) was incubated at 37° C. with aldose reductase (0.0016 units, human recombinant, expressed in SF 9 cells) and NADPH (0.15 mM) in sodium phosphate buffer (100 mM, pH 6.2). To initiate assays, glucose (10-150 mM) was added to reactions and the decrease in absorbance at 340 nm (oxidation of NADPH) was monitored. Assays were run in duplicate or triplicate. Slopes were calculated using Varian-Cary software package 2.0 and averaged. In all cases errors were 4% or less. Lineweaver Burk analysis (Enzyme Kinetics, version 1.61) was used to calculate inhibition constants.

dogs = conditions: dog, in vivo; cited from earlier work
mice = conditions: mouse, in vivo; cited from earlier work
humans = conditions: in vivo; cited from earlier work

O=S(=O)([O-])CCSSCCS(=O)(=O)[O-].[Na+].[Na+]
Mode of inhibition of the aldose reductase reaction [1]: uncompetitive inhibition
Adverse effects after intravenous administration (dogs): no adverse effects
Adverse effects after intravenous administration (mice): no adverse effects
Adverse effects after administration to humans (humans): no adverse effects
